Measured values published in patent publication US6716986B2, “Sulfuric acid mono-[3-({1-[2-(4-fluoro-phenyl)-ethyl]-piperidin-4-YL}-hydroxy-methyl)-2-methoxy-phenyl]ester” (Aventis Pharmaceuticals Inc., priority 1999, dated 2004).

What was measured:
[1] = In vitro BBMEC permeability (transport studies); assay type: in vitro ADME; conditions: bovine, mean±standard deviation
Method: The procedure was performed according to: Kenneth L. Audus et al., Brain Microvessel Endothelial Cell Culture System (Chapter 13) pp 239-258. In Models for Assessing Drug Absorption and Metabolism, Ronald T. Borchardt et al. eds., Plenum Press, New York 1996, incorporated herein by reference.

human 5-HT2A = biological target: T1, human 5-HT2A (Homo sapiens, UniProt P28223); assay: In vitro inhibition of [3H]-ligand binding to human 5-HT2A receptor
T1 construct: expressed in transfected cells
T1 sequence (P28223 whole entry): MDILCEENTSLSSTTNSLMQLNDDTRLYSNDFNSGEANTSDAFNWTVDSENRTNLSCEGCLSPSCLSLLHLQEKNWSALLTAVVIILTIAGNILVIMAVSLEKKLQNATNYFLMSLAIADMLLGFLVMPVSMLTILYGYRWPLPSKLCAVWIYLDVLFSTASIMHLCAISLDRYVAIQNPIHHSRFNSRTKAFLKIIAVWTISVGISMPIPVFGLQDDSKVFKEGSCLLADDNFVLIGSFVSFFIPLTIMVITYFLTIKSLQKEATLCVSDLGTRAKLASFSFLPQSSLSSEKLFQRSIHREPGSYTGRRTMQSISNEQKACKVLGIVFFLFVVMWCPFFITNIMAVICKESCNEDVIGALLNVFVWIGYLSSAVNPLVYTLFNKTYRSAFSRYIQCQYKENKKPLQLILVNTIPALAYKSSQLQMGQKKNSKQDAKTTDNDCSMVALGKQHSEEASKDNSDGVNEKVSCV
Method: Cells stably expressing the human homologs of the receptors (dopamine D2L, serotonin 5HT2A and 5HT2C, α1A adrenergic; cloned and expressed at Hoechst Marion Roussel; Grandy et al., 1989; Monsma et al., 1993; Schwinn et al., 1995) were grown; cell membranes were prepared, and kept frozen until used (Kongsamut et al., 1996). The relevance of these binding sites has been extensively discussed in the literature (see for example: Carlsson & Carlsson, 1990; Creese et al., 1976; Gorman & Vargas, 1995; Meltzer et al., 1989). All binding parameters were optimized at Hoechst Marion Roussel; ligand Kds were determined using both saturation analysis (Scatchard) as well as kinetic analysis (association and dissociation rates). Each batch of membrane was validated by checking the ligand Kd, and rank order of potency of selected standard compounds. […]
(§1) Membranes were rapidly thawed and diluted to an appropriate concentration (between 20-150 μg protein/assay point depending on receptor expression level) in Tris buffer and homogenized. […] Microscint scintillation cocktail (40 μl) were added and the filter plates were counted in a Packard Top Count scintillation counter. Data were analyzed to determine Ki's for compounds of interest (Prusoff & Cheng, 19).Table: Receptor Binding Parameters.

human α1A = biological target: T2, human α1A (Homo sapiens, UniProt P35348); assay: In vitro inhibition of [3H]-ligand binding to human α1A adrenergic receptor; conditions: [3H]prazosin, CHO cell membranes
T2 construct: expressed in transfected cells
T2 sequence (P35348 1-466): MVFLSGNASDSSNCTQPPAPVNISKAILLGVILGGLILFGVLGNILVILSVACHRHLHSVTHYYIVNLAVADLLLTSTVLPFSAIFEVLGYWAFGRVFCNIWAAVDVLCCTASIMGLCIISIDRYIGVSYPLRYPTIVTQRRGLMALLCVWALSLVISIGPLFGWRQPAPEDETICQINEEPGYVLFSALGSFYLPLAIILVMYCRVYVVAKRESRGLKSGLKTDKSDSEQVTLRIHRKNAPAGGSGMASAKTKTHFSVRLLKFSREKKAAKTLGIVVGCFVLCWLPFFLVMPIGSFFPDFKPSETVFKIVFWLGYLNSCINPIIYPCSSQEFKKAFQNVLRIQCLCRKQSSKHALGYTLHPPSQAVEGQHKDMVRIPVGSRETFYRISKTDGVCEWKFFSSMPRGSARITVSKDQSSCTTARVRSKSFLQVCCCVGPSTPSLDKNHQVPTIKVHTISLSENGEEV
Method: (§2) Cells stably expressing the human homologs of the receptors (dopamine D2L, serotonin 5HT2A and 5HT2C, α1A adrenergic; cloned and expressed at Hoechst Marion Roussel; Grandy et al., 1989; Monsma et al., 1993; Schwinn et al., 1995) were grown; cell membranes were prepared, and kept frozen until used (Kongsamut et al., 1996). […] All binding parameters were optimized at Hoechst Marion Roussel; ligand Kds were determined using both saturation analysis (Scatchard) as well as kinetic analysis (association and dissociation rates). Each batch of membrane was validated by checking the ligand Kd, and rank order of potency of selected standard compounds. Assays for the serotonin 5HT2A and dopamine D2L receptors were conducted at 37° C. in a Tris buffer containing salts (50 mM Tris Buffer, pH 7.7; 120 mM NaCl; 5 mM KCl; 2 mM CaCl2; 1 mM MgCl2), while the serotonin 5-HT2C and α1A adrenergic receptor assays used a different buffer without salts (50 mM Tris, 4 mM CaCl2 and 1% ascorbate, pH 7.4). […]
as §1, with “counter.” for “counter. Data were analyzed to determine Ki's for compounds of interest (Prusoff & Cheng, 19).Table: Receptor Binding Parameters.”

human D2L = biological target: T3, human D2L (Homo sapiens, UniProt P14416); assay: In vitro inhibition of [3H]-ligand binding to human D2L receptor; conditions: [3H]N-methyl spiperone, CHO cell membranes, 37° C.; read-out: D2 (Ki μM)
T3 construct: expressed in transfected cells
T3 sequence (P14416 whole entry): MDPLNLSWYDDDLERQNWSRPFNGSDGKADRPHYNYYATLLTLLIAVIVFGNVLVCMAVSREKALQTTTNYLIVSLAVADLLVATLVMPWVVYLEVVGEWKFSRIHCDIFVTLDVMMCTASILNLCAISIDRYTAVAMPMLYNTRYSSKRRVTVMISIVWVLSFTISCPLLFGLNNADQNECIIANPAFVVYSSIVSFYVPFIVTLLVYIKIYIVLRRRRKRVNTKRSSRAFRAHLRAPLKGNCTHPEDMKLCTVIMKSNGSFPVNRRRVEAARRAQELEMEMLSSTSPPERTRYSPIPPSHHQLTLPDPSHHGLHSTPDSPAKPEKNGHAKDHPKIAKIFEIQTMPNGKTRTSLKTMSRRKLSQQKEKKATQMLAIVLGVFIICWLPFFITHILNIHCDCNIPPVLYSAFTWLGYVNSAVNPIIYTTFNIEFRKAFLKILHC
Method: as §2
as §1, with “counter.” for “counter. Data were analyzed to determine Ki's for compounds of interest (Prusoff & Cheng, 19).Table: Receptor Binding Parameters.”

human 5-HT2c = biological target: T4, human 5-HT2c (Homo sapiens, UniProt P28335); assay: In vitro inhibition of [3H]-ligand binding to human 5-HT2C receptor; conditions: [3H]mesulergine, CHO cell membranes
T4 construct: expressed in transfected cells
T4 sequence (P28335 33-458): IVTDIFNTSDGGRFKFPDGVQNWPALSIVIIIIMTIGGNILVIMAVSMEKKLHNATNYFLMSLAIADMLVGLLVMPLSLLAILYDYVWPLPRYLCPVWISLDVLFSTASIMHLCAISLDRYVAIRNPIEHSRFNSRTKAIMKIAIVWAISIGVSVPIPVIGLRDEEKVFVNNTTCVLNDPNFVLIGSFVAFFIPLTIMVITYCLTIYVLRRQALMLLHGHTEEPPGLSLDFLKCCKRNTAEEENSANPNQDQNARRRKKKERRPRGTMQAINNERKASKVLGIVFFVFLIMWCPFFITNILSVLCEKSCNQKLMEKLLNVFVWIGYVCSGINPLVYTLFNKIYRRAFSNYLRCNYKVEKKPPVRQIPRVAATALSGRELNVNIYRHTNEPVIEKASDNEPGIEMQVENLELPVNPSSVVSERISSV
Method: as §2
as §1, with “counter.” for “counter. Data were analyzed to determine Ki's for compounds of interest (Prusoff & Cheng, 19).Table: Receptor Binding Parameters.”

With `OC[C@@H](O)[C@@H](O)[C@H](O)[C@H](O)CO` [Mannitol (standard), Mannitol] the Papp at 5.4 μM [1] was 27.6 ± 2.3 ×10⁻⁶ cm/s.
`CN1CN(c2ccccc2)C2(CCN(CCCC(=O)c3ccc(F)cc3)CC2)C1=O` [[^3H]N-methyl spiperone, reference compound] showed a Kd (human 5-HT2A; human 5-HT2A, BHK, saturation (Scatchard) and kinetic analysis) of 0.92 nM.
`COc1c(OS(=O)(=O)O)cccc1C(O)C1CCN(CCc2ccc(F)cc2)CC1` (stereo not drawn) [Example 1H, Sulfuric acid mono-(+)-[3-(-{1-[2-(4-fluoro-phenyl)-ethyl]-piperidin-4-yl}-hydroxy-methyl)-2-methoxy-phenyl] ester] gave a Ki (human α1A) of over 1 µM, a Ki (human D2L) of over 1 µM and a Ki (human 5-HT2A; [3H]N-methyl spiperone, BHK cell membranes, 37° C.) of 0.16 µM. The Ki (human 5-HT2c) was over 1 µM.
